Read-outs that look alike come from different tables or passages of the source.
Test system: recombinant NL-Rluc virus
Test: Inhibition of HIV replication (NL-RLuc virus in MT-2 cells, luciferase readout)
Format: cell-based
Details: 5 days of incubation, 10% FBS
[1] = Human immunodeficiency virus 1, MT2, 120 h

## Cc1nc2cc3nn2c(c1[C@H](OC(C)(C)C)C(=O)O)N1CCC(C)(CCCCCCc2ccccc2-c2cccc-3c2)CC1 [Example 41, (2S)-2-(tert-Butoxy)-2-{4,27-dimethyl-1,5,7,8-tetraazahexacyclo[25.2.2.1^6,^9.1^10,^14.0^2,^7.0^15,^20]tritriaconta-2,4,6(33),8,10(32), 11,13,15(20),16,18-decaen-3-yl}acetic acid]
[1]
  EC50: 180 nM

## Cc1nc2cc3nn2c(c1[C@H](OC(C)(C)C)C(=O)O)N1CCC(C)(CC/C=C/CCc2ccncc2-c2cccc-3c2)CC1 [Example 50, (2S)-2-(tert-Butoxy)-2-[(23E)-4,27-dimethyl-1,5,7,8,17-pentaazahexacyclo[25.2.2.1^6,^9.1^10,^14.0^2,^7.0^15,^20]tritriaconta-2,4,6(33),8,10(32),11,13,15(20),16,18,23-undecaen-3-yl]acetic acid]
[1]
  EC50: 6 nM

## Cc1nc2cc3nn2c(c1[C@H](OC(C)(C)C)C(=O)O)-c1ccc2c(c1)C(CCCCCc1ccccc1-c1cccc-3c1)CCO2 (single isomer, unassigned) [Example 9]
  EC50: 3680 nM

## Cc1nc2cc3nn2c(c1[C@H](OC(C)(C)C)C(=O)O)-c1ccc2c(c1)C(CCCCc1ccccc1-c1cccc-3c1)CCO2 (single isomer, unassigned) [Example 10]
  EC50: 237 nM

## Cc1nc2cc3nn2c(c1[C@H](OC(C)(C)C)C(=O)O)-c1ccc2c(c1)[C@@H](CCCCOc1ccccc1-c1cccc-3c1)CCO2 (single isomer, unassigned) [Example 13]
[1]
  EC50: 216 nM

## Cc1ccc2c(c1)-c1cccc(c1)-c1cc3nc(C)c([C@H](OC(C)(C)C)C(=O)O)c(n3n1)N1CCC(C)(CC1)OCCC[C@H](C)O2 [Example 61, (2S)-2-(tert-Butoxy)-2-[(22S)-4,17,22,27-tetramethyl-21,26-dioxa-1,5,7,8-tetraazahexacyclo[25.2.2.1^6,^9.1^10,^14.0^2,^7.0^15,^20]tritriaconta-2,4,6(33),8,10(32),11,13,15(20),16,18-decaen-3-yl]acetic acid]
[1]
  EC50: 10 nM

## Cc1nc2cc3nn2c(c1[C@H](OC(C)(C)C)C(=O)O)-c1ccc2c(c1)C(CCCCc1ccccc1-c1cccc-3c1)CCO2 (single isomer, unassigned) [Example 11]
  EC50: 1270 nM

## Cc1ccc2c(c1)-c1cccc(c1)-c1cc3nc(C)c([C@H](OC(C)(C)C)C(=O)O)c(n3n1)N1CCC(C)(CC1)OCCCCO2 [Example 35, (2S)-2-(tert-Butoxy)-2-{4,17,27-trimethyl-21,26-dioxa-1,5,7,8-tetraazahexacyclo[25.2.2.1^6,^9.1^10,^14.0^2,^7.0^15,^20]tritriaconta-2,4,6(33),8,10(32),11,13,15(20),16,18-decaen-3-yl}acetic acid]
[1]
  EC50: 10 nM

## Cc1ccc2c(c1F)-c1cccc(c1)-c1cc3nc(C)c([C@H](OC(C)(C)C)C(=O)O)c(n3n1)N1CCC(C)(CC1)OC/C=C/C[C@H](C)O2 [Example 68, (2S)-2-(tert-Butoxy)-2-[(22S,^24E)-16-fluoro-4,17,22,28-tetramethyl-21,27-dioxa-1,5,7,8-tetraazahexacyclo[26.2.2.1^6,^9.1^10,^14. 0^2,^7.0^15,^20]tetratriaconta-2,4,6(34),8,10(33), 11, 13, 15 (20), 16,18,24-undecaen-3-yl]acetic acid]
[1]
  EC50: 9 nM

## Cc1nc2cc3nn2c(c1[C@H](OC(C)(C)C)C(=O)O)-c1ccc2c(c1Cl)N(C/C=C\CCc1cccc(c1)-c1cccc-3c1)CCO2 [Example 1, (2S)-2-(tert-Butoxy)-2-[(22Z)-32-chloro-4-methyl-28-oxa-5,7,8,25-tetraazaheptacyclo[23.6.2.1^6,^9.1^10,^14.1^15,^19.0^2,^7.0^29,^33]hexatriaconta-1(31),2,4,6(36),8,10(35), 11,13,15(34), 16,18,22,29,32-tetradecaen-3-yl]acetic acid]
[1]
  EC50: 853 nM

## Cc1cc2c(cc1F)O[C@@H](C)CCCCOC1(C)CCN(CC1)c1c([C@H](OC(C)(C)C)C(=O)O)c(C)nc3cc(nn13)-c1cccc-2c1 [Example 79, (2S)-2-(tert-Butoxy)-2-[(22S)-18-fluoro-4,17,22,28-tetramethyl-21,27-dioxa-1,5,7,8-tetraazahexacyclo[26.2.2.1^6,^9.1^10,^14.0^2,^7.0^15,^20]tetratriaconta-2,4,6(34),8,10(33),11,13,15(20),16,18-decaen-3-yl]acetic acid]
[1]
  EC50: 38 nM

## (2S)-2-(tert-Butoxy)-2-[(22S)-4,17,22,29-tetramethyl-21,28-dioxa-1,5,7,8-tetraazahexacyclo[27.2.2.1^6,^9.1^10,^14.0^2,^7.0^15,^20]pentatriaconta-2,4, 6(35), 8, 10(34), 11, 13, 15 (20),16,18-decaen-3-yl]acetic acid [Example 65]
read-out: EC50
  EC50: 43 nM

## Cc1nc2cc3nn2c(c1[C@H](OC(C)(C)C)C(=O)O)N1CCC(C)(CC1)OCCCCCc1ncccc1-c1cccc-3c1 [Example 46, (2S)-2-(tert-Butoxy)-2-{4,27-dimethyl-26-oxa-1,5,7,8,19-pentaazahexacyclo[25.2.2.1^6,^9.1^10,^14.0^2,^7.0^15,^20]tritriaconta-2,4,6(33),8,10(32),11,13,15(20),16,18-decaen-3-yl}acetic acid]
[1]
  EC50: 10 nM

## Cc1nc2cc3nn2c(c1[C@H](OC(C)(C)C)C(=O)O)N1CCC(C)(CC1)OCC=CCCOc1ccccc1-c1cccc-3c1 [Example 26, (2S)-2-(tert-Butoxy)-2-[4,28-dimethyl-21,27-dioxa-1,5,7,8-tetraazahexacyclo[26.2.2.1^6,^9.1^10,^14.0^2,^7.0^15,^20]tetratriaconta-2,4,6(34),8,10(33),11,13,15(20),16,18,24-undecaen-3-yl]acetic acid]
[1]
  EC50: 41 nM

## Cc1cc2c(cc1Cl)O[C@@H](C)CCCCOC1(C)CCN(CC1)c1c([C@H](OC(C)(C)C)C(=O)O)c(C)nc3cc(nn13)-c1cccc-2c1 [Example 67, (2S)-2-(tert-butoxy)-2-[(22S)-18-chloro-4,17,22,28-tetramethyl-21,27-dioxa-1,5,7,8-tetraazahexacyclo[26.2.2.1^6,^9.1^10,^14.0^2,^7.0^15,^20]tetratriaconta-2,4,6(34),8,10(33), 11, 13, 15 (20),16,18-decaen-3-yl]acetic acid]
[1]
  EC50: 109 nM

## Cc1nc2cc3nn2c(c1[C@H](OC(C)(C)C)C(=O)O)N1CCC(C)(/C=C/CCCOc2ccc(Cl)cc2-c2cccc-3c2)CC1 [Example 45, (2S)-2-(tert-Butoxy)-2-[(25E)-17-chloro-4,27-dimethyl-21-oxa-1,5,7,8-tetraazahexacyclo[25.2.2.1^6,^9.1^10,^14.0^2,^7.0^15,^20]tritriaconta-2,4,6(33),8,10(32),11,13,15(20),16,18,25-undecaen-3-yl]acetic acid]
[1]
  EC50: 33 nM

## Cc1ccc2c(c1)-c1cccc(c1)-c1cc3nc(C)c([C@H](OC(C)(C)C)C(=O)O)c(n3n1)N1CCC(C)(CC1)OCCCC[C@H](C)O2 [Example 55, (2S)-2-(tert-Butoxy)-2-[(22S)-4,17,22,28-tetramethyl-21,27-dioxa-1,5,7,8-tetraazahexacyclo[26.2.2.1^6,^9.1^10,^14.0^2,^7.0^15,^20]tetratriaconta-2,4,6(34), 8, 10(33), 11, 13, 15 (20),16,18-decaen-3-yl]acetic acid]
[1]
  EC50: 14 nM

## Cc1cc2c(cc1Cl)O[C@@H](C)CC=CCOC1(C)CCN(CC1)c1c([C@H](OC(C)(C)C)C(=O)O)c(C)nc3cc(nn13)-c1cccc-2c1 [Example 66, (2S)-2-(tert-Butoxy)-2-[(22S)-18-chloro-4,17,22,28-tetramethyl-21,27-dioxa-1,5,7,8-tetraazahexacyclo[26.2.2.1^6,^9.1^10,^14.0^2,^7.0^15,^20]tetratriaconta-2,4,6(34),8,10(33), 11, 13, 15(20),16,18,24-undecaen-3-yl]acetic acid]
[1]
  EC50: 43 nM

## Cc1nc2cc3nn2c(c1[C@H](OC(C)(C)C)C(=O)O)N1CCC(C)(CC1)OCC=C[C@@H](C)Oc1ccccc1-c1cccc-3c1 (single isomer, unassigned) [Example 22]
[1]
  EC50: 36 nM

## Cc1nc2cc3nn2c(c1[C@H](OC(C)(C)C)C(=O)O)-c1ccc2c(c1)C(CCCCCc1ccccc1-c1cccc-3c1)CCO2 (single isomer, unassigned) [Example 8]
  EC50: 51 nM

## Cc1nc2cc3nn2c(c1[C@H](OC(C)(C)C)C(=O)O)N1CCC(C)(/C=C/C=C/COc2ccc(Cl)cc2-c2cccc-3c2)CC1 [Example 43, (2S)-2-(tert-Butoxy)-2-[(23E,25E)-17-chloro-4,27-dimethyl-21-oxa-1,5,7,8-tetraazahexacyclo[25.2.2.1^6,^9.1^10,^14.0^2,^7.0^15,^20]tritriaconta-2,4,6(33),8,10(32), 11, 13, 15(20),16,18,23,25-dodecaen-3-yl]acetic acid]
[1]
  EC50: 134 nM

## Cc1nc2cc3nn2c(c1[C@H](OC(C)(C)C)C(=O)O)N1CCC(C)(CC1)OCCC[C@@H](C)Oc1ccccc1-c1cccc-3c1 [Example 25, (2S)-2-(tert-Butoxy)-2-[(22R)-4,22,27-trimethyl-21,26-dioxa-1,5,7,8-tetraazahexacyclo[25.2.2.1^6,^9.1^10,^14.0^2,^7.0^15,^20]tritriaconta-2,4,6(33),8,10(32),11,13,15(20),16,18-decaen-3-yl]acetic acid]
[1]
  EC50: 38 nM

## Cc1ccc2c(c1)-c1cccc(c1)-c1cc3nc(C)c([C@H](OC(C)(C)C)C(=O)O)c(n3n1)N1CCC(C)(CC1)OCCCC(C)CO2 (single isomer, unassigned) [Example 103]
[1]
  EC50: 25 nM

## Cc1nc2cc3nn2c(c1[C@H](OC(C)(C)C)C(=O)O)N1CCC(C)(CC1)OCCCC[C@H](C)Oc1ccccc1-c1cccc-3c1 [Example 29, (2S)-2-(tert-Butoxy)-2-[(22S)-4,22,28-trimethyl-21,27-dioxa-1,5,7,8-tetraazahexacyclo[26.2.2.1^6,^9.1^10,^14.0^2,^7.0^15,^20]tetratriaconta-2,4,6(34),8,10(33), 11, 13, 15 (20),16,18-decaen-3-yl]acetic acid]
[1]
  EC50: 18 nM

## Cc1cc2c(cc1C)-c1cccc(c1)-c1cc3nc(C)c([C@H](OC(C)(C)C)C(=O)O)c(n3n1)N1CCC(C)(CC1)OCCCC[C@H](C)O2 [Example 76, (2S)-2-(tert-Butoxy)-2-[(22S)-4,17,18,22,28-pentamethyl-21,27-dioxa-1,5,7,8-tetraazahexacyclo[26.2.2.1^6,^9.1^10,^14.0^2,^7.0^15,^20]tetratriaconta-2,4,6(34),8,10(33),11,13,15(20),16,18-decaen-3-yl]acetic acid]
[1]
  EC50: 29 nM

Reference: US8906929B2, “Inhibitors of human immunodeficiency virus replication” (priority 2012, dated 2014)
